Assay results taken from the supplement of paper PMC4862054.

Tested on: CAL-85-1
Assay: normalised response (% of control), CellTiter-Glo; higher = more viable cells (100 = DMSO, 0 = benzethonium chloride kill control)
Settings: incubation time: 72 h
Outline: (§1)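 Each entry is the normalised signal at a single concentration within a series. The series comprised 5 concentrations in 10-fold steps over a compound-specific 10,000-fold range, placed in 384-well plates into which breast cancer cell lines were seeded as 20 µl suspension and incubated 72 h. CellTox Green (485/520 nm) fluorescence and then CellTiter-Glo luminescence were read, with signals normalised per plate to 0.1 % DMSO (100) and a positive kill control (0).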

| SMILES | normalised response |
| --- | --- |
| CCN(CC)CCCC(C)Nc1ccnc2cc(Cl)ccc12 (configuration not stated) [Chloroquine] (10000 nM) | 57.7% |
| O=C(O)CNC(=O)c1c(O)c2ccccc2n(Cc2ccccc2)c1=O [IOX-2] (5000 nM) | 96.9% |
| CN(C)C(=N)NC(=N)N [Metformin] (10000 nM) | 102% |
| CN(Cc1cnc2nc(N)nc(N)c2n1)c1ccc(C(=O)N[C@@H](CCC(=O)O)C(=O)O)cc1 [Methotrexate] (5000 nM) | 51.4% |
| O=[N+]([O-])c1ccc2c(c1)S(=O)(=O)C=C2 [Stattic] (5000 nM) | 1.59% |
| CC(C)n1cnc2c(NCCc3ccc(O)cc3)nc(-c3csc4ccccc34)nc21 [StemRegenin 1] (1000 nM) | 98.8% |

Tested on: DU-4475
Assay: as above
Settings: incubation time: 72 h
Outline: as §1

| SMILES | normalised response |
| --- | --- |
| CCn1c(C(=O)N(C2CC2)C2CC2)cc2c3c(ncn3C)c(Nc3cc(C)n(C)n3)nc21 (1000 nM) | 97.2% |
| CCN(CC)CCCC(C)Nc1ccnc2cc(Cl)ccc12 (configuration not stated) [Chloroquine] (10000 nM) | 80.1% |
| O=C(O)CNC(=O)c1c(O)c2ccccc2n(Cc2ccccc2)c1=O [IOX-2] (5000 nM) | 99.3% |
| CN(C)C(=N)NC(=N)N [Metformin] (10000 nM) | 79.5% |
| CN(Cc1cnc2nc(N)nc(N)c2n1)c1ccc(C(=O)N[C@@H](CCC(=O)O)C(=O)O)cc1 [Methotrexate] (5000 nM) | 102% |
| O=[N+]([O-])c1ccc2c(c1)S(=O)(=O)C=C2 [Stattic] (5000 nM) | 101% |
| CC(C)n1cnc2c(NCCc3ccc(O)cc3)nc(-c3csc4ccccc34)nc21 [StemRegenin 1] (1000 nM) | 103% |

Tested on: HCC1143
Assay: as above
Settings: incubation time: 72 h
Outline: as §1

| SMILES | normalised response |
| --- | --- |
| CCn1c(C(=O)N(C2CC2)C2CC2)cc2c3c(ncn3C)c(Nc3cc(C)n(C)n3)nc21 (1000 nM) | 103% |
| CCN(CC)CCCC(C)Nc1ccnc2cc(Cl)ccc12 (configuration not stated) [Chloroquine] (10000 nM) | 89.6% |
| O=C(O)CNC(=O)c1c(O)c2ccccc2n(Cc2ccccc2)c1=O [IOX-2] (5000 nM) | 103% |
| CN(C)C(=N)NC(=N)N [Metformin] (10000 nM) | 93.6% |
| CN(Cc1cnc2nc(N)nc(N)c2n1)c1ccc(C(=O)N[C@@H](CCC(=O)O)C(=O)O)cc1 [Methotrexate] (5000 nM) | 83.5% |
| O=[N+]([O-])c1ccc2c(c1)S(=O)(=O)C=C2 [Stattic] (5000 nM) | 93.1% |
| CC(C)n1cnc2c(NCCc3ccc(O)cc3)nc(-c3csc4ccccc34)nc21 [StemRegenin 1] (1000 nM) | 110% |

Tested on: HCC1599
Assay: as above
Settings: incubation time: 72 h
Outline: as §1

| SMILES | normalised response |
| --- | --- |
| CCn1c(C(=O)N(C2CC2)C2CC2)cc2c3c(ncn3C)c(Nc3cc(C)n(C)n3)nc21 (1000 nM) | 124% |
| CCN(CC)CCCC(C)Nc1ccnc2cc(Cl)ccc12 (configuration not stated) [Chloroquine] (10000 nM) | 65.3% |
| O=C(O)CNC(=O)c1c(O)c2ccccc2n(Cc2ccccc2)c1=O [IOX-2] (5000 nM) | 114% |
| CN(C)C(=N)NC(=N)N [Metformin] (10000 nM) | 108% |
| CN(Cc1cnc2nc(N)nc(N)c2n1)c1ccc(C(=O)N[C@@H](CCC(=O)O)C(=O)O)cc1 [Methotrexate] (5000 nM) | 97.9% |
| O=[N+]([O-])c1ccc2c(c1)S(=O)(=O)C=C2 [Stattic] (5000 nM) | 86.9% |
| CC(C)n1cnc2c(NCCc3ccc(O)cc3)nc(-c3csc4ccccc34)nc21 [StemRegenin 1] (1000 nM) | 111% |

Tested on: HCC1937
Assay: as above
Settings: incubation time: 72 h
Outline: as §1

| SMILES | normalised response |
| --- | --- |
| CCn1c(C(=O)N(C2CC2)C2CC2)cc2c3c(ncn3C)c(Nc3cc(C)n(C)n3)nc21 (1000 nM) | 101% |
| CCN(CC)CCCC(C)Nc1ccnc2cc(Cl)ccc12 (configuration not stated) [Chloroquine] (10000 nM) | 65.7% |
| O=C(O)CNC(=O)c1c(O)c2ccccc2n(Cc2ccccc2)c1=O [IOX-2] (5000 nM) | 93.3% |
| CN(C)C(=N)NC(=N)N [Metformin] (10000 nM) | 99.5% |
| CN(Cc1cnc2nc(N)nc(N)c2n1)c1ccc(C(=O)N[C@@H](CCC(=O)O)C(=O)O)cc1 [Methotrexate] (5000 nM) | 31.3% |
